Where two headings read alike, the source gives them in different places.

The nature of series [1]: pKa and protonation status of the heterocyclic nitrogen. It counts as physicochemical. The note with it: pH 6.0; calculated by Henderson-Hasselbalch equation. From the text:
The nucleophilicity and Lewis basicity of the nitrogen atom of the three heterocyclic N-BPs studied in this report vary, and these properties appear to be the major determinants of their conjugation reactivity. Thus, the ‘magic linker’ methodology for RIS required modification for ZOL (1d), MIN (1e), and their related analogues (1f). […] The protonation status of the heteroatom at different pH is also critical to the reactivity. […] Under such conditions, more than 50% (˜71.3% calculated) of the nitrogen of RIS will be deprotonated, and able to attack the epoxide ring nucleophilically. However, at pH 6.0, only 18% of the nitrogen of ZOL (22% for MIN) is deprotonated, thus the reactions were very slow (2d) at pH 6.0. At pH 7.0-7.5, reaction was more rapid, but the regioselectivity (N-alkylation vs. O-alkylation) for 1d, 1e, 1f was not as good as for RIS and its analogues (1a, 1b, 1c); 10-20% of side products could be observed, which were confirmed by HPLC, NMR and MS to be the products of N,O(P)-dialkylation (O-alkylation occurs between the phosphonate/carboxylate group of the drug and the epoxide). The reaction rate of MinPC (1f)-epoxide (5) coupling was even slower than ZOL under the same reaction conditions (same reactant ratio, pH 7.5, 40-45° C.), which might be due to a steric effect from the large heterocycle. In addition, the percent of side products was higher and O-alkylation products were also observed in the reaction mixture.
The following publications are incorporated by reference herein in their entirety: • [1] a) R. G. G. Russell, N. B. Watts, F. H. Ebetino, M. J. Rogers, Osteoporos. Int. 2008, 19, 733-759; b) F. Ebetino, A. Hogan, S. Sun, M. Tsoumpra, X. Duan, J. Triffitt, A. Kwaasi, J. Dunford, B. Barnett, U. Oppermann, M. Lundy, A. Boyde, B. Kashemirov, C. McKenna, R. Russell, Bone 2011, 49 20-33. • [2] a) I. Reid, M. Bolland, A. Grey, Bone 2007, 41, 318-320; b) A. Siddiqi, A. Payne, S. Zafar, Oral Surg. Oral Med. Oral Pathol. Oral Radiol. Endod. […]

For series [2], the system named is unprenylated Rap1A (uRap1A). The note with it: PC analogues versus N-BPs; cited from earlier work.
The nature of series [3]: UV-VIS absorption and fluorescence emission spectra. The note with it: 0.1M phosphate buffer (1x PBS for 7d5); ± 1 nm error. It counts as physicochemical. On the procedure:
All labeled samples were dissolved in water and diluted with 0.1 M phosphate buffer or 1×PBS (for 7d5). Assuming that the labeled bisphosphonates have the same extinction coefficient (E) as the carboxylic acid of the free fluorescent label, the final concentrations for all labeled products were calculated from UV-VIS absorption spectra at λ=493 nm (ε=73000 M^−1 cm^−1 at pH 7.2) for FAM conjugates (7a1-7a3, 7b1, 7c1, 7d1-7d2, 7e1-7e2, 7f1-7f2), λ=567.5 nm (ε=114850 M^−1cm^−1 at pH 7.5) for RhR-X conjugates (7a4, 7b2, 7c2), λ=580 nm (c=72000 M^−1cm^−1 at pH 8.0) for ROX conjugates (7a5, 7b3), λ=648 nm (ε=240000 M^−1cm^−1 at pH 7.2) for AF647 conjugates (7a6, 7b4, 7d3), λ=774 nm (ε=240000 M^−1cm^−1 at pH 7.4) for 800CW conjugates (7d4), λ=644 nm (ε=271000 M^−1cm^−1 at pH 7.4, 1×PBS) for Sulfo-Cy5 conjugates (7d5).
Emission spectra for FAM and RhR-X conjugates were recorded using an excitation wavelength of 490 nm or 520 nm, respectively. Emission spectra for AF647 conjugates and Sulfo-Cy5 conjugates were recorded using an excitation wavelength of 600 nm. Emission spectra of 5(6)-ROX conjugates were recorded using an excitation wavelength of 575 nm. Emission spectra of IRDye CW800 conjugate was recorded using an excitation wavelength of 750 nm. The set-up of excitation slit, emission slit, integration time and increment were determined to get optimal spectra for each compound respectively, depending on the sample concentration and spectrometer used.

Series [4] has as its system unprenylated Rap1A (uRap1A). The series is described as follows: Prenylation assay: Western blot for unprenylated Rap1A in J774.2 macrophages. It counts as cell-based, mouse. To be noted: 10 or 100 μM, 24 h, FIG. 5A-C. On the procedure:
To determine the effect of fluorescent BP probes on protein prenylation, J774.2 mouse macrophages were plated out at 2×10^5 cells/mL in 24-well plates and left to adhere overnight. Cells were then treated with 10 or 100 μM of fluorescent analogues of RIS, dRIS, and ZOL, the respective native BP, or vehicle, for 24 h. Cells were lysed in radioimmunoprecipitation buffer, and proteins were separated by sodium dodecyl sulfate polyacrylamide gel electrophoresis and transferred to polyvinyl difluoride membranes by western blotting. Membranes were then incubated with antibodies to the unprenylated form of Rap1A (uRap1A) and the housekeeping protein β-actin, which were detected by incubation with fluorescently-labeled secondary antibodies and scanning of membranes on a LI-COR Infrared Imager. Results shown are representative of 2 independent experiments. The ratio between abundance of unprenylated RaplA and β-actin is indicated for each sample below the blots in FIG. 5.
In general terms: A western blot detects proteins with antibodies after separation by electrophoresis.

The conditions of series [5]: assumed the same as the corresponding fluorescent dye, cited from earlier work.
Series [6] in a line: Hydroxyapatite (HAP) column chromatography binding assay. To be noted: pH 6.8, phosphate gradient 1 to 1000 mM; FIG. 3. On the procedure:
The fast performance liquid chromatography (FPLC) system consisted of a Waters 650E advanced protein purification system (Millipore Corp., Waters chromatography division, Milford, Mass.), a 600E system controller and a 484 tunable absorbance detector for UV absorbance assessment. Ceramic hydroxyapatite [HAP, […], Macro-Prep® Ceramic Hydroxyapatite Type II 20 μm 100 g, Bio-Rad Laboratories, Inc. Hercules, Calif.] was equilibrated with 1 mM phosphate buffer (pH 6.8) and packed in a 0.66 cm (diameter)×6.5 cm (length) glass column (Omnifit, Bio-chem Valve™ inc., Cambridge, U.K.), which was attached to the Waters 650E advanced protein purification system. Each sample was prepared in 1 mM potassium phosphate buffer, and 100 μL of 1 mM (0.1 μmol) sample was injected into the FPLC system. As a consequence, the compounds were absorbed and subsequently eluted at a flow rate of 2 ml/min by using a linear concentration gradient of phosphate from 1 to 1000 mM at pH 6.8. Fractions of each sample were collected in 80 tubes using an automated fraction collector (Gilson, France) and then used for subsequent ultraviolet (SPECTRAmax PLUS 384, Molecular Devices, CA) or fluorescence spectrometry detection (WALLAC VICTOR™, 1420 MULTILABEL COUNTER, Perkin Elmer, USA). […] The elution profile for each sample was determined in triplicate for statistical analysis (Prism, GraphPad Software, USA). […]

The conditions of series [7]: parent compounds, ref. [23]; cited from earlier work.

Take `O=P(O)(O)C(O)(Cc1cnc2ccccn12)P(=O)(O)O` [MIN, (1-Hydroxy-2-imidazo[1,2-a]pyridin-3-yl-1-phosphonoethyl)phosphonic acid]: the “fraction of the heterocyclic nitrogen deprotonated” value in series [1] is listed as 22%.
In the case of `O=P(O)(O)C(O)(Cn1ccnc1)P(=O)(O)O` [ZOL, [1-hydroxy-2-(1H-imidazol-1-yl)ethane-1,1-diyl]bis(phosphonic acid)], in series [1], the “fraction of the heterocyclic nitrogen deprotonated” value was 18%.
Take `O=C(O)C(O)(Cc1cnc2ccccn12)P(=O)(O)O` (centres unmarked) [MINPC, 2-hydroxy-3-imidazo[1,2-a]pyridin-3-yl-2-phosphonopropionic acid]: the “activity in uRap1A and J774.2 cell viability screening assays” value in series [2] is on record as “much less active than the N-BPs”.
Consider “16-[2-carboxy-4-({2-hydroxy-3-[4-(2-hydroxy-2,2-diphosphonoethyl)pyridin-1-ium-1-yl]propyl}carbamoyl)phenyl]-3-oxa-9λ^5,23-diazaheptacyclo[17.7.1.1^5,9.0^2,17.0^4,15.0^23,27.0^13,28]octacosa-1(27),2(17),4,9(28), 13,15,18-heptaen-9-ylium [5(6)-ROX-RIS]”, for which, in series [3], the “Maximum absorption wavelength (λmax (abs), nm)” value (shortened to “Maximum absorption wavelength”) is 580 nm and the “Maximum emission wavelength (λmax (em), nm)” value (“Maximum emission wavelength” for short) is 606 nm. Besides, the “accumulation of unprenylated Rap1A (anti-prenylation activity)” value (“accumulation of unprenylated Rap1A” below) in series [4] is given as “shows activity”. Also, the Extinction coefficient in series [5] (pH 8.0, 0.1M phosphate buffer) is recorded as 72,000 (pH 8.0) M^−1cm^−1.
On to `O=C(NCC(O)C[n+]1ccn(CC(O)(P(=O)(O)O)P(=O)(O)O)c1)c1ccc(C(=O)O)c(-c2c3ccc(=O)cc-3oc3cc(O)ccc23)c1` (centres unmarked) [Compound 6-FAM-ZOL, 3-(3-(4-carboxy-3-(6-hydroxy-3-oxo-3H-xanthen-9-yl)benzamido)-2-hydroxypropyl)-1-(2-hydroxy-2,2-diphosphonoethyl)-1H-imidazol-3-ium], for which, in series [3], the “Maximum absorption wavelength” value turned out to be 493 nm and the “Maximum emission wavelength” value is 516 nm. Further, in series [6], the “HAP binding affinity (retention time on HAP column, normalized to RIS)” value is given as “slightly longer retention time on the HAP column than its 5-isomer”. The “accumulation of unprenylated Rap1A” value in series [4] is given as “retain some activity, although their potencies are weaker than native ZOL”. Further, the Extinction coefficient in series [5] (pH 7.2, 0.1M phosphate buffer) is given as 73,000 (pH 7.2) M^−1cm^−1.
Consider `O=P(O)(O)C(Cc1cccnc1)P(=O)(O)O` [dRIS, (2-pyridin-3-ylethane-1,1-diyl)bis(phosphonic acid)], for which the “rank order of mineral binding affinity” value in series [7] is on record as “RIS>dRIS>RISPC”.
Turning to “1-(3-(4-carboxy-3-(6-hydroxy-3-oxo-3H-xanthen-9-yl)benzamido)-2-hydroxypropyl)-3-(2-hydroxy-2,2-diphosphonoethyl)pyridin-1-ium [Compound 6-FAM-RIS]”, in series [3], the “Maximum absorption wavelength” value was 493 nm and the “Maximum emission wavelength” value stood at 517 nm. Moreover, the “accumulation of unprenylated Rap1A” value in series [4] was “clearly detectable”. Moreover, the Extinction coefficient in series [5] (pH 7.2, 0.1M phosphate buffer) was 73,000 (pH 7.2) M^−1cm^−1.
